What follows are compounds tested on FLU A (PR/8/34) (assay: Flu A Neuraminidase Antiviral Assay). Details: not given.
Assay type: cell-based
In the case of Cc1ccccc1C1C(CC(F)(F)F)CC(C)C2N(C)C(=O)c3c(O)c(=O)ccn3N12 (single isomer, unassigned) [Compound 79A, 7-hydroxy-4,5-dimethyl-1-(o-tolyl)-2-(2,2,2-trifluoroethyl)-1,2,3,4,4a,5-hexahydrodipyrido[1,2-b:2′,1′-f][1,2,4]triazine-6,8-dione], the EC50 is reported as 83.8 nM. O=C1c2c(O)c(=O)ccn2N2C(c3ccccc3)CCCC2N1CC1CC1 (single isomer, unassigned) [Compound 56A, 5-(cyclopropylmethyl)-7-hydroxy-1-phenyl-1,2,3,4,4a,5-hexahydrodipyrido[1,2-b:2′,1′-f][1,2,4]triazine-6,8-dione] gave an EC50 of over 8100 nM. For C=CCC1CCC2N(C)C(=O)c3c(O)c(=O)ccn3N2C1c1ccccc1Cl (stereo not shown) [Compound 64B, 2-allyl-1-(2-chlorophenyl)-7-hydroxy-5-methyl-1,2,3,4,4a,5-hexahydrodipyrido[1,2-b:2′,1′-f][1,2,4]triazine-6,8-dione], the EC50 was 28.4 nM. In the case of CN1C(=O)c2c(O)c(=O)ccn2N2C1CCCC2(C)c1ccccc1 (single isomer, unassigned) [Compound 18B, 7-hydroxy-1,5-dimethyl-1-phenyl-1,2,3,4,4a,5-hexahydrodipyrido[1,2-b:2′,1′-f][1,2,4]triazine-6,8-dione], the EC50 is reported as 356 nM. CN1C(=O)c2c(O)c(=O)ccn2N2C(c3ccccc3F)C(CC(F)F)CCC12 (single isomer, unassigned) [Compound 113B, 2-(2,2-difluoroethyl)-1-(2-fluorophenyl)-7-hydroxy-5-methyl-1,2,3,4,4a,5-hexahydrodipyrido[1,2-b:2′,1′-f][1,2,4]triazine-6,8-dione] showed an EC50 of 7.3 nM. Work on CC(C1CCC2N(C)C(=O)c3c(O)c(=O)ccn3N2C1c1ccccc1)C(F)(F)F (single isomer, unassigned) [Compound 109B, 7-hydroxy-5-methyl-1-phenyl-2-(1,1,1-trifluoropropan-2-yl)-1,2,3,4,4a,5-hexahydrodipyrido[1,2-b:2′,1′-f][1,2,4]triazine-6,8-dione] yielded an EC50 of 5.4 nM. Compound CN1C(=O)c2c(O)c(=O)ccn2N2C(c3ccccc3C3CC3)C(CC(F)(F)F)CCC12 (single isomer, unassigned) [Compound 107A, 1-(2-cyclopropylphenyl)-7-hydroxy-5-methyl-2-(2,2,2-trifluoroethyl)-1,2,3,4,4a,5-hexahydrodipyrido[1,2-b:2′,1′-f][1,2,4]triazine-6,8-dione] has an EC50 of 4800 nM. Work on CC1(c2cc(C(F)(F)F)ccn2)CCCC2N(CC3(C(F)(F)F)CC3)C(=O)c3c(O)c(=O)ccn3N21 (single isomer, unassigned) [Compound 52A, 7-hydroxy-1-methyl-5-((1-(trifluoromethyl)cyclopropyl)methyl)-1-(4-(trifluoromethyl)pyridin-2-yl)-1,2,3,4,4a,5-hexahydrodipyrido[1,2-b:2′,1′-f][1,2,4]triazine-6,8-dione] yielded an EC50 of 114 nM. Compound CN1C(=O)c2c(O)c(=O)ccn2N2C(c3ccc(F)cc3)CCCC12 (single isomer, unassigned) [Compound 2B, 1-(4-fluorophenyl)-7-hydroxy-5-methyl-1,2,3,4,4a,5-hexahydrodipyrido[1,2-b:2′,1′-f][1,2,4]triazine-6,8-dione] has an EC50 of 5920 nM. CN1C(=O)c2c(O)c(=O)ccn2N2C(c3ccccc3)C(C3(C(F)(F)F)CC3)CCC12 (single isomer, unassigned) [Compound 108A, 7-hydroxy-5-methyl-1-phenyl-2-(1-(trifluoromethyl)cyclopropyl)-1,2,3,4,4a,5-hexahydrodipyrido[1,2-b:2′,1′-f][1,2,4]triazine-6,8-dione] showed an EC50 of 5420 nM. For CN1C(=O)c2c(O)c(=O)ccn2N2C1CCC(O)C2(C)c1ccccc1 (stereo not shown) [Compound 137D, 2,7-dihydroxy-1,5-dimethyl-1-phenyl-1,2,3,4,4a,5-hexahydrodipyrido[1,2-b:2′,1′-f][1,2,4]triazine-6,8-dione], the EC50 was 49.3 nM. For CN1C(=O)c2c(O)c(=O)ccn2N2C(c3ccccc3)C(CCC(F)F)CCC12 (single isomer, unassigned) [Compound 124A, 2-(3,3-difluoropropyl)-7-hydroxy-5-methyl-1-phenyl-1,2,3,4,4a,5-hexahydrodipyrido[1,2-b:2′,1′-f][1,2,4]triazine-6,8-dione], the EC50 was 871 nM. In the case of CCN1C(=O)c2c(O)c(=O)ccn2N2C1CCC1(CCC(F)(F)CC1)C2c1ccccc1 (single isomer, unassigned) [Compound 76A], the EC50 is reported as over 810 nM. In the case of CCC1(c2ccccc2)CCCC2N(C)C(=O)c3c(O)c(=O)ccn3N21 (single isomer, unassigned) [Compound 22A, 1-ethyl-7-hydroxy-5-methyl-1-phenyl-1,2,3,4,4a,5-hexahydrodipyrido[1,2-b:2′,1′-f][1,2,4]triazine-6,8-dione], the EC50 is reported as over 8100 nM. CN1C(=O)c2c(O)c(=O)ccn2N2C(c3ccc(F)cc3)CCCC12 (single isomer, unassigned) [Compound 2A, 1-(4-fluorophenyl)-7-hydroxy-5-methyl-1,2,3,4,4a,5-hexahydrodipyrido[1,2-b:2′,1′-f][1,2,4]triazine-6,8-dione] showed an EC50 of 109 nM. Work on CN1C(=O)c2c(O)c(=O)ccn2N2C(c3ccccc3C(F)(F)F)CCC12 (single isomer, unassigned) [Compound 15B, 6-hydroxy-4-methyl-1-(2-(trifluoromethyl)phenyl)-2,3,3a,4-tetrahydro-1H-pyrido[2,1-f]pyrrolo[1,2-b][1,2,4]triazine-5,7-dione] yielded an EC50 of 1450 nM. Compound COc1ccccc1C1C(CC(F)(F)F)CCC2N(C)C(=O)c3c(O)c(=O)ccn3N12 (single isomer, unassigned) [Compound 125B, 7-hydroxy-1-(2-methoxyphenyl)-5-methyl-2-(2,2,2-trifluoroethyl)-1,2,3,4,4a,5-hexahydrodipyrido[1,2-b:2′,1′-f][1,2,4]triazine-6,8-dione] has an EC50 of 2.5 nM. In the case of Cc1c(F)cccc1C1C(CC(F)(F)F)CCC2N(C)C(=O)c3c(O)c(=O)ccn3N12 (single isomer, unassigned) [Compound 80B, 1-(3-fluoro-2-methylphenyl)-7-hydroxy-5-methyl-2-(2,2,2-trifluoroethyl)-1,2,3,4,4a,5-hexahydrodipyrido[1,2-b:2′,1′-f][1,2,4]triazine-6,8-dione], the EC50 is reported as 3.3 nM. CCc1ccccc1C1C(CC(F)(F)F)CCC2N(C)C(=O)c3c(O)c(=O)ccn3N12 (single isomer, unassigned) [Compound 112B, 1-(2-ethylphenyl)-7-hydroxy-5-methyl-2-(2,2,2-trifluoroethyl)-1,2,3,4,4a,5-hexahydrodipyrido[1,2-b:2′,1′-f][1,2,4]triazine-6,8-dione] showed an EC50 of 162 nM. In the case of CC1(c2ccccc2)CCCC2N(CC(F)(F)F)C(=O)c3c(O)c(=O)ccn3N21 (single isomer, unassigned) [Compound 34B, 7-hydroxy-1-methyl-1-phenyl-5-(2,2,2-trifluoroethyl)-1,2,3,4,4a,5-hexahydrodipyrido[1,2-b:2′,1′-f][1,2,4]triazine-6,8-dione], the EC50 is reported as 4.9 nM. CN1C(=O)c2c(O)c(=O)ccn2N2C1CCC(O)C2(C)c1ccccc1 (stereo not shown) [Compound 137C, 2,7-dihydroxy-1,5-dimethyl-1-phenyl-1,2,3,4,4a,5-hexahydrodipyrido[1,2-b:2′,1′-f][1,2,4]triazine-6,8-dione] gave an EC50 of over 8100 nM. CN1C(=O)c2c(O)c(=O)ccn2N2C(c3ccccc3)CCCC12 (single isomer, unassigned) [Compound 1B, 7-hydroxy-5-methyl-1-phenyl-1,2,3,4,4a,5-hexahydrodipyrido[1,2-b:2′,1′-f][1,2,4]triazine-6,8-dione] was tested, and the EC50 was 39.6 nM. Cc1ccccc1C1C(CC(F)(F)F)CCC2(C)N(C)C(=O)c3c(O)c(=O)ccn3N12 (single isomer, unassigned) [Compound 87A, 7-hydroxy-4a,5-dimethyl-1-(o-tolyl)-2-(2,2,2-trifluoroethyl)-1,2,3,4,4a,5-hexahydrodipyrido[1,2-b:2′,1′-f][1,2,4]triazine-6,8-dione] was tested, and the EC50 was over 810 nM. For CN1C(=O)c2c(O)c(=O)ccn2N2C(c3c(F)cccc3F)C(CC(F)(F)F)CCC12 (single isomer, unassigned) [Compound 123B, 1-(2,6-difluorophenyl)-7-hydroxy-5-methyl-2-(2,2,2-trifluoroethyl)-1,2,3,4,4a,5-hexahydrodipyrido[1,2-b:2′,1′-f][1,2,4] triazine-6,8-dione], the EC50 was 4.2 nM. In the case of CN1C(=O)c2c(O)c(=O)ccn2N2C1CCCC2(C)c1cccc(OC(F)F)c1 (single isomer, unassigned) [Compound 51B, 1-(3-(difluoromethoxy)phenyl)-7-hydroxy-1,5-dimethyl-1,2,3,4,4a,5-hexahydrodipyrido[1,2-b:2′,1′-f][1,2,4]triazine-6,8-dione], the EC50 is reported as 16.3 nM.

Same assay, conditions: MDCK, 48 h
In the case of CN1C(=O)c2c(O)c(=O)ccn2N2[C@H](c3ccccc3)[C@@H](NC(=O)C(F)(F)F)CC[C@@H]12 [Compound 140], the EC50 is reported as 2400 nM. CN1C(=O)c2c(O)c(=O)ccn2N2C(c3ccccc3)CCC12 (stereo not shown) [Compound 60B, 6-hydroxy-4-methyl-1-phenyl-2,3,3a,4-tetrahydro-1H-pyrido[2,1-f]pyrrolo[1,2-b][1,2,4]triazine-5,7-dione] gave an EC50 of 884 nM. CN1C(=O)c2c(O)c(=O)ccn2N2C1CC[C@H](OCC=C(F)F)[C@@]2(C)c1ccccc1 (stereo partly shown) [Compound 151] was tested, and the EC50 was over 810 nM. With CC(C)O[C@@H]1CC[C@H]2N(C)C(=O)c3c(O)c(=O)ccn3N2[C@@H]1c1ccccc1 [Compound 156, (1R,2R,4aS)-7-hydroxy-2-isopropoxy-5-methyl-1-phenyl-1,2,3,4,4a,5-hexahydrodipyrido[1,2-b:2′,1′-f][1,2,4]triazine-6,8-dione] the EC50 was 38 nM. CC(=O)N[C@H]1CC[C@@H](c2ccccc2)N2[C@@H]1N(C)C(=O)c1c(O)c(=O)ccn12 [Compound 144, N-((1S,4S,4aS)-7-hydroxy-5-methyl-6,8-dioxo-1-phenyl-1,2,3,4,4a,5,6,8-octahydrodipyrido[1,2-b:2′,1′-f][1,2,4]triazin-4-yl)acetamide] gave an EC50 of over 810 nM. For CCCC1CCC2C(n3ccc(=O)c(O)c3C(=O)N2C)C1(O)c1ccccc1 (single isomer, unassigned) [Compound 166A, 1,7-dihydroxy-5-methyl-1-phenyl-2-propyl-1,3,4,4a,5,11a-hexahydro-2H-pyrido[1,2-a]quinoxaline-6,8-dione], the EC50 was over 8100 nM.

— patent US20240018145A1, “[…]-DEPENDENT EN[…] TREATING OR […]” (priority 2020, published 2024)
